Assay results reported in the NIST ThermoML archive (doi:10.1016/j.jct.2018.01.025).
Numbers after ± are expanded uncertainties.

Conditions: Liquid; for mass density: Vibrating tube method

Compound: CCCC[N+](C)(C)C.O=S(=O)([N-]S(=O)(=O)C(F)(F)F)C(F)(F)F [butyltrimethylammonium bis(trifluoromethylsulfonyl)imide]
- viscosity (278.15 K, 101.33 kPa, Concentric cylinders viscometry): 360.1 ± 9.7 mPa·s
- mass density (278.15 K, 101.33 kPa): 1411.5 ± 2.3 kg/m3
- viscosity (283.15 K, 101.33 kPa, Concentric cylinders viscometry): 253.8 ± 5.8 mPa·s
- mass density (283.15 K, 101.33 kPa): 1406.6 ± 2.3 kg/m3
- viscosity (288.15 K, 101.33 kPa, Concentric cylinders viscometry): 184.7 ± 3.6 mPa·s
- mass density (288.15 K, 101.33 kPa): 1401.9 ± 2.3 kg/m3
- viscosity (293.15 K, 101.33 kPa, Concentric cylinders viscometry): 138.3 ± 2.3 mPa·s
- mass density (293.15 K, 101.33 kPa): 1397.2 ± 2.3 kg/m3
- viscosity (298.15 K, 101.33 kPa, Concentric cylinders viscometry): 105.4 ± 1.5 mPa·s
- mass density (298.15 K, 101.33 kPa): 1392.8 ± 2.3 kg/m3
- viscosity (298.6 K, 101.33 kPa, Vibrating wire viscometry): 102.17 ± 1.9 mPa·s
- viscosity (301.53 K, 101.33 kPa, Vibrating wire viscometry): 87.01 ± 1.6 mPa·s
- viscosity (303.15 K, 101.33 kPa, Concentric cylinders viscometry): 82.19 ± 1 mPa·s
- mass density (303.15 K, 101.33 kPa): 1388.4 ± 2.3 kg/m3
- viscosity (303.15 K, 10000 kPa, Falling or rolling sphere viscometry): 93.4 ± 3.8 mPa·s
- viscosity (303.15 K, 15000 kPa, Falling or rolling sphere viscometry): 99.9 ± 4.1 mPa·s
- viscosity (303.15 K, 25000 kPa, Falling or rolling sphere viscometry): 114 ± 5 mPa·s
- viscosity (303.15 K, 50000 kPa, Falling or rolling sphere viscometry): 158.2 ± 7.9 mPa·s
- viscosity (303.15 K, 75000 kPa, Falling or rolling sphere viscometry): 218.5 ± 13 mPa·s
- viscosity (303.15 K, 100000 kPa, Falling or rolling sphere viscometry): 300.8 ± 20 mPa·s
- viscosity (303.15 K, 125000 kPa, Falling or rolling sphere viscometry): 413.1 ± 31 mPa·s
- viscosity (303.15 K, 150000 kPa, Falling or rolling sphere viscometry): 566.6 ± 47 mPa·s
- viscosity (304.45 K, 101.33 kPa, Vibrating wire viscometry): 76.4 ± 1.3 mPa·s
- viscosity (307.33 K, 101.33 kPa, Vibrating wire viscometry): 66.1 ± 1.1 mPa·s
- viscosity (308.15 K, 101.33 kPa, Concentric cylinders viscometry): 65.33 ± 0.74 mPa·s
- mass density (308.15 K, 101.33 kPa): 1384 ± 2.3 kg/m3
- viscosity (310.28 K, 101.33 kPa, Vibrating wire viscometry): 58.41 ± 0.92 mPa·s
- viscosity (313.15 K, 101.33 kPa, Concentric cylinders viscometry): 53.01 ± 0.57 mPa·s
- mass density (313.15 K, 101.33 kPa): 1379.7 ± 2.3 kg/m3
- viscosity (313.15 K, 10000 kPa, Falling or rolling sphere viscometry): 59.7 ± 2.1 mPa·s
- viscosity (313.15 K, 15000 kPa, Falling or rolling sphere viscometry): 63.7 ± 2.3 mPa·s
- viscosity (313.15 K, 25000 kPa, Falling or rolling sphere viscometry): 72.4 ± 2.7 mPa·s
- viscosity (313.15 K, 50000 kPa, Falling or rolling sphere viscometry): 98.5 ± 4.1 mPa·s
- viscosity (313.15 K, 75000 kPa, Falling or rolling sphere viscometry): 132.2 ± 6.2 mPa·s
- viscosity (313.15 K, 100000 kPa, Falling or rolling sphere viscometry): 175.9 ± 9.3 mPa·s
- viscosity (313.15 K, 125000 kPa, Falling or rolling sphere viscometry): 232.5 ± 14 mPa·s
- viscosity (313.15 K, 150000 kPa, Falling or rolling sphere viscometry): 306 ± 20 mPa·s
- viscosity (313.34 K, 101.33 kPa, Vibrating wire viscometry): 50.51 ± 0.78 mPa·s
- viscosity (318.15 K, 101.33 kPa, Concentric cylinders viscometry): 43.22 ± 0.48 mPa·s
- mass density (318.15 K, 101.33 kPa): 1375.4 ± 2.3 kg/m3
- viscosity (323.15 K, 101.33 kPa, Concentric cylinders viscometry): 35.9 ± 0.4 mPa·s
- mass density (323.15 K, 101.33 kPa): 1371.1 ± 2.3 kg/m3
- viscosity (323.15 K, 10000 kPa, Falling or rolling sphere viscometry): 40.1 ± 1.5 mPa·s
- viscosity (323.15 K, 15000 kPa, Falling or rolling sphere viscometry): 42.6 ± 1.5 mPa·s
- viscosity (323.15 K, 25000 kPa, Falling or rolling sphere viscometry): 47.9 ± 1.7 mPa·s
- viscosity (323.15 K, 50000 kPa, Falling or rolling sphere viscometry): 63.5 ± 2.3 mPa·s
- viscosity (323.15 K, 75000 kPa, Falling or rolling sphere viscometry): 83.6 ± 3.3 mPa·s
- viscosity (323.15 K, 100000 kPa, Falling or rolling sphere viscometry): 109.1 ± 4.7 mPa·s
- viscosity (323.15 K, 125000 kPa, Falling or rolling sphere viscometry): 142 ± 6.8 mPa·s
- viscosity (323.15 K, 150000 kPa, Falling or rolling sphere viscometry): 183.4 ± 9.8 mPa·s
- viscosity (323.33 K, 101.33 kPa, Vibrating wire viscometry): 35.59 ± 0.57 mPa·s
- viscosity (328.15 K, 101.33 kPa, Concentric cylinders viscometry): 30.18 ± 0.34 mPa·s
- mass density (328.15 K, 101.33 kPa): 1366.8 ± 2.3 kg/m3
- viscosity (328.27 K, 101.33 kPa, Vibrating wire viscometry): 29.72 ± 0.47 mPa·s
- viscosity (333.15 K, 101.33 kPa, Concentric cylinders viscometry): 25.64 ± 0.29 mPa·s
- mass density (333.15 K, 101.33 kPa): 1362.6 ± 2.3 kg/m3
- viscosity (333.15 K, 10000 kPa, Falling or rolling sphere viscometry): 28.2 ± 1 mPa·s
- viscosity (333.15 K, 15000 kPa, Falling or rolling sphere viscometry): 29.8 ± 1.1 mPa·s
- viscosity (333.15 K, 25000 kPa, Falling or rolling sphere viscometry): 33.3 ± 1.2 mPa·s
- viscosity (333.15 K, 50000 kPa, Falling or rolling sphere viscometry): 43.4 ± 1.6 mPa·s
- viscosity (333.15 K, 75000 kPa, Falling or rolling sphere viscometry): 56.1 ± 2 mPa·s
- viscosity (333.15 K, 100000 kPa, Falling or rolling sphere viscometry): 71.9 ± 2.7 mPa·s
- viscosity (333.15 K, 125000 kPa, Falling or rolling sphere viscometry): 91.8 ± 3.7 mPa·s
- viscosity (333.15 K, 150000 kPa, Falling or rolling sphere viscometry): 116.8 ± 5.2 mPa·s
- viscosity (338.15 K, 101.33 kPa, Concentric cylinders viscometry): 22.02 ± 0.25 mPa·s
- mass density (338.15 K, 101.33 kPa): 1358.4 ± 2.3 kg/m3
- viscosity (343.15 K, 101.33 kPa, Concentric cylinders viscometry): 19.08 ± 0.21 mPa·s
- mass density (343.15 K, 101.33 kPa): 1354.2 ± 2.3 kg/m3
- viscosity (343.15 K, 10000 kPa, Falling or rolling sphere viscometry): 21 ± 0.8 mPa·s
- viscosity (343.15 K, 15000 kPa, Falling or rolling sphere viscometry): 22 ± 0.8 mPa·s
- viscosity (343.15 K, 25000 kPa, Falling or rolling sphere viscometry): 24.3 ± 0.9 mPa·s
- viscosity (343.15 K, 50000 kPa, Falling or rolling sphere viscometry): 31 ± 1.1 mPa·s
- viscosity (343.15 K, 75000 kPa, Falling or rolling sphere viscometry): 39.5 ± 1.4 mPa·s
- viscosity (343.15 K, 100000 kPa, Falling or rolling sphere viscometry): 50.3 ± 1.8 mPa·s
- viscosity (343.15 K, 125000 kPa, Falling or rolling sphere viscometry): 63.8 ± 2.3 mPa·s
- viscosity (343.15 K, 150000 kPa, Falling or rolling sphere viscometry): 81 ± 3.1 mPa·s
- viscosity (348.15 K, 101.33 kPa, Concentric cylinders viscometry): 16.65 ± 0.19 mPa·s
- mass density (348.15 K, 101.33 kPa): 1350 ± 2.3 kg/m3
- viscosity (353.15 K, 101.33 kPa, Concentric cylinders viscometry): 14.74 ± 0.17 mPa·s
- mass density (353.15 K, 101.33 kPa): 1345.7 ± 2.3 kg/m3
- viscosity (353.15 K, 10000 kPa, Falling or rolling sphere viscometry): 15.6 ± 0.6 mPa·s
- viscosity (353.15 K, 15000 kPa, Falling or rolling sphere viscometry): 16.5 ± 0.6 mPa·s
- viscosity (353.15 K, 25000 kPa, Falling or rolling sphere viscometry): 18.3 ± 0.7 mPa·s
- viscosity (353.15 K, 50000 kPa, Falling or rolling sphere viscometry): 23.4 ± 0.8 mPa·s
- viscosity (353.15 K, 75000 kPa, Falling or rolling sphere viscometry): 29.4 ± 1.1 mPa·s
- viscosity (353.15 K, 100000 kPa, Falling or rolling sphere viscometry): 36.6 ± 1.3 mPa·s
- viscosity (353.15 K, 125000 kPa, Falling or rolling sphere viscometry): 45.3 ± 1.6 mPa·s
- viscosity (353.15 K, 150000 kPa, Falling or rolling sphere viscometry): 55.7 ± 2 mPa·s
- viscosity (358.15 K, 101.33 kPa, Concentric cylinders viscometry): 12.99 ± 0.15 mPa·s
- mass density (358.15 K, 101.33 kPa): 1341.4 ± 2.3 kg/m3
- viscosity (363.15 K, 101.33 kPa, Concentric cylinders viscometry): 11.58 ± 0.13 mPa·s
- mass density (363.15 K, 101.33 kPa): 1336.8 ± 2.3 kg/m3
- viscosity (368.15 K, 101.33 kPa, Concentric cylinders viscometry): 10.38 ± 0.12 mPa·s
- mass density (368.15 K, 101.33 kPa): 1332.5 ± 2.3 kg/m3
- viscosity (373.15 K, 101.33 kPa, Concentric cylinders viscometry): 9.36 ± 0.11 mPa·s
- mass density (373.15 K, 101.33 kPa): 1328.4 ± 2.3 kg/m3
